Results: EP0063381A1, “Pyrazolo(3-4-d) pyrimidines, process for their preparation and pharmaceutical compositions containing them” (Byk Gulden Lomberg Chemische Fabrik GmbH, priority 1981, dated 1982)
pEC50: −log10 of the molar value. Like-named read-outs stand apart in the source and are kept apart here.

Columns and labels:
[1] = tested on: Rinderherz PDE "Boehringer"; experiment: Inhibition of phosphodiesterase (PDE), substrate cAMP; format: biochemical, Rind; settings: compound 0,2 mM; substrate cAMP 0,15 mM; Rinderherz PDE in Glycerin; 200 µM
Protocol: Die Tabelle 1. gibt die gefundenen Werte der Hemmung der Phosphodiesterase (PDE) an. Es wurde Rinderherz PDE "Boehringer" in Glycerin und als Substrat cAMP (0,15 mM) verwendet. Die Konzentration der untersuchten Verbindungen war 0,2 mM.

[2] = tested on: durch Methanol hervorgerufene Retinaschädigung; experiment: Retinotropic effect measured on the mouse electroretinogram (antagonism of methanol-induced retinal damage); format: in vivo, Maus; settings: for Retinotrope Wirkung [%]: Elektroretinogramm der Maus; for retinotrope Wirkung (in words): in the dose range in which the compounds of the invention were tested
Description: Die Versuchsmethodik ist bei K.K.Gauri und W.Hohl, Der Augenspiegel, 1979 (Heft 9), und […] Referenzen beschrieben.

[3] = tested on: Trachealspangen-Kette des Meerschweinchens; experiment: Relaxation of the spontaneously contracted guinea pig tracheal ring chain in vitro (organ bath); parameters: species or system Meerschweinchen; settings: for Relative Wirkungsstärke (Theophyllin=1,00): relative to Theophyllin, from ED50 of tracheal relaxation; for pEC50: relaxation as fraction of maximum by (-)Isoprenalin 10^-6 mol/l, cumulative concentrations, 37°C, read-out: ED50 (Dosis der halbmaximal möglichen Relaxation)
Protocol: Weiterhin wurde die relaxierende Wirkung erfindungsgemäBer Verbindungen auf die Trachealspangen-Kette des Meerschweinchens in vitro geprüft:
Vier parallele, aus jeweils 6 Einzelringen bestehende Trachealspangen-Ketten des Meerschweinchens (♂ und ♀, 430-600 g) im Organbad (5 ml, Krebs-Henseleit-Lösung mit Zusatz von Phentolamin (10^-5 mol/l, 37°C, Vorspannung der Organe 2 g, Begasung mit Carbogen) entwickeln nach etwa 20 bis 30 Minuten eine stabile, tonische Spontankontraktur. An diesen dauerkontrahierten Organen kann unter isometrischen Meßbedingungen durch Applikation der Prüfsubstanz in kumulativhalblogarithmisch ansteigender Konzentration (z.B. 1x10^-6 + 2x10^-6 + 7x10^-6 + 2x10^-5 usw. mol/l) eine Relaxation herbeigeführt werden, wobei nach jeder Einzeldosis der Testsubstanz eine konstante Relaxations-Antwort abgewartet wird, bevor die nächst höhere Konzentration appliziert wird. Ober einen Zeitraum von 20 bis 30 Minuten wird somit eine vollständige Dosis-Wirkungskurve der Testsubstanz erhalten. Die jeweilige Relaxation wird als Prozentbruchteil der durch Gabe von (-)Isoprenalin (10^-6 mol/1) maximal erreichbaren Relaxation ausgedrückt.
In Tabelle 3 sind die ED50 (Dosis der halbmaximal möglichen Relaxation) und die relative Wirkungsstärke im Vergleich zu Theophyllin für erfindungsgemäße Verbindungen angegeben.

| SMILES | Hemmung der PDE in % [1] | pEC50 [3] | Relative Wirkungsstärke (Theophyllin=1,00) [3] | also measured |
| --- | --- | --- | --- | --- |
| CCCCCCn1c(=O)n(C)c(=O)c2c[nH]nc21 [I, 7-n-Hexyl-4,5,6,7-tetrahydro-5-methyl-4,6-dioxo-2H-pyrazolo[3,4-d]-pyrimidin] | 47,84% | – | – | – |
| CCCCCCn1c(=O)n(C)c(=O)c2cn(C)nc21 [II, 7-n-Hexyl-4,5,6,7-tetrahydro-2,5-dimethyl-4,6-dioxo-2H-pyrazolo[3,4-d]-pyrimidin] | 47,41% | – | – | – |
| CCCCCCn1c(=O)n(C)c(=O)c2cn(CC)nc21 [III, 2-Ethyl-7-n-hexyl-4,5,6,7-tetrahydro-5-methyl-4,6-dioxo-2H-pyrazolo-[3,4-d]pyrimidin] | 58,51% | – | – | Retinotrope Wirkung [%] ([2]; Dosis 1 mg/kg): +24% |
| CCCCCCn1c(=O)n(C)c(=O)c2cn(CCC)nc21 [IV, 7-n-Hexyl-4,5,6,7-tetrahydro-5-methyl-4,6-dioxo-2-n-propyl-2H-pyrazolo-[3,4-d]pyrimidin] | 63,04% | – | – | – |
| CCCCCCn1c(=O)c2cn(CC)nc2n(C)c1=O [IX, 2-Ethyl-5-n-hexyl-4,5,6,7-tetrahydro-7-methyl-4,6-dioxo-2H-pyrazolo-[3,4-d]pyrimidin] | 71,52% | 4.42 | 3,4 | Retinotrope Wirkung [%] ([2]; Dosis 1 mg/kg): +12% |
| CC(=O)CCCCn1c(=O)c2c(ncn2C)n(C)c1=O [Pentoxifyllin, reference compound] | – | – | – | Retinotrope Wirkung [%] ([2]; Dosis 6,25 mg/kg): 0%; retinotrope Wirkung (in words) [2]: noch keine retinotrope Wirkung |
| Cn1c(=O)c2[nH]cnc2n(C)c1=O [Theophyllin, reference compound] | 37,13% | 3.89 | 1,00 | Retinotrope Wirkung [%] ([2]; Dosis 10 mg/kg): 0%; retinotrope Wirkung (in words) [2]: noch keine retinotrope Wirkung |
| CCCCCCn1c(=O)n(C)c(=O)c2cn(CCCC)nc21 [V, 2-n-Butyl-7-n-hexyl-4,5,6,7-tetrahydro-5-methyl-4,6-dioxo-2H-pyra-zolo-[3,4-d]pyrimidin] | 70,86% | 4.21 | 1,8 | – |
| CCCCCCn1cc2c(=O)n(C)c(=O)n(CCCCCC)c2n1 [VI, 2,7-Di-n-hexyl-4,5,6,7-tetrahydro-5-methyl-4,6-dioxo-2H-pyrazolo[3,4-d]-pyrimidin] | 37,30% | – | – | – |
| CCCCCCn1c(=O)c2cn[nH]c2n(C)c1=O [VII, 5-n-Hexyl-4,5,6,7-tetrahydro-7-methyl-4,6-dioxo-1H-pyrazolo[3,4-d]-pyrimidin] | 52,43% | – | – | – |
| CCCCCCn1c(=O)c2cn(C)nc2n(C)c1=O [VIII, 5-n-Hexyl-4,5,6,7-tetrahydro-2,7-dimethyl-4,6-dioxo-2H-pyrazolo-[3,4-d]pyrimidin] | 42,04% | – | – | – |
| CCCCCCn1c(=O)c2cn(CCCC)nc2n(C)c1=O [X, 2-n-Butyl-5-n-hexyl-4,5,6,7-tetrahydro-7-methyl-4,6-dioxo-2H-pyra-zolo[3,4-d]pyrimidin] | 37,83% | – | – | – |
| CCCCCCn1c(=O)c2cn(C(=O)c3cc(OC)c(OC)c(OC)c3)nc2n(C)c1=O [XII, 5-n-Hexyl-4,5,6,7-tetrahydro-2-(3,4,5-trimethoxybenzoyl)-7-methyl-4,6-dioxo-2H-pyrazolo[3,4-d]pyrimidin] | – | – | 3,7 | Retinotrope Wirkung [%] ([2]; Dosis 1 mg/kg): +40%; pEC50 ([3]; Cavia porcellus): 3.46 |

Further lines, with some results ahead:

| Hemmung der PDE in % [1] | pEC50 [3] | SMILES | Relative Wirkungsstärke (Theophyllin=1,00) [3] | also measured |
| --- | --- | --- | --- | --- |
| 18,35% | – | CCCCCCn1cc2c(=O)n(CCCCCC)c(=O)n(C)c2n1 [XI, 2,5-Di-n-hexyl-4,5,6,7-tetrahydro-7-methyl-4,6-dioxo-2H-pyrazolo-[3,4-d]pyrimidin] | – | – |
| – | 4.02 | CCCCCCn1c(=O)n(C)c(=O)c2cnn(C)c21 [XIII, 7-Hexyl-4,5,6,7-tetrahydro-1,5-dimethyl-4,6-dioxo-1H-pyrazolo-[3,4-d]pyrimidin] | 1,4 | – |
| – | 4.12 | COc1cc(C(=O)n2cc3c(=O)n(CC(C)C)c(=O)n(C)c3n2)cc(OC)c1OC [XVI, 5-i-Butyl-4,5,6,7-tetrahydro-2-(3,4,5-trimethoxybenzoyl)-7-methyl-4,6-dioxo-2H-pyrazolo[3,4-d]pyrimidin] | 1,7 | – |
| – | 4.18 | CCn1c(=O)n(CCCCC(C)=O)c(=O)c2cnn(C)c21 [XVII, 7-Ethyl-4,5,6,7-tetrahydro-1-methyl-4,6-dioxo-5'-(5-oxo-n-hexyl)-1H-pyrazolo[3,4-d]pyrimidin] | 2,0 | Retinotrope Wirkung [%] ([2]; Dosis 2 mg/kg): +80% |
| – | 4.89 | CC(C)Cn1c(=O)n(C)c(=O)c2cn(CCO)nc21 [XVIII, 7-j-Butyl-4,5,6,7-tetrahydro-2-(2-hydroxyethyl)-5-methyl-4,6-dioxo-2H-pyrazolo[3,4-d]pyrimidin] | 10,0 | – |
| – | 4.77 | CC(C)Cn1c(=O)n(C)c(=O)c2c[nH]nc21 [XV] | 7,6 | – |
